Laboratory results reported in patent US10828312B2, “Lithium cholesterol compositions, including, but not limited to lithium cholesterol sulfate compositions, and methods of treatment for Alzheimer's disease and neurological disorders” (priority 2018, dated 2020).
Entries after “also recorded” stand apart in the source; their conditions may differ. Where a name gives a salt, the structure may show the parent alone. Read-outs that look alike come from different tables or passages of the source.

Tests used:
[1] = Lithium levels in blood plasma, brain, kidney and liver of mice after oral gavage (lithium ELISA); format: in vivo, C57BL/6J male mice
Description: C57BL/6J male mice at 4 months of age were treated with LiCl or LiCS at 0.04 mmol lithium/mouse p.o by gavage, followed by determination of lithium levels in blood plasma, brain, kidney and liver at 0.5, 1, 2, 3, 5 and 24 h after gavage by ELISA (N=2 mice/time point).
At 0.5, 1, 2, 3, 5 and 24 h after treating mice with LiCl or LiCS p.o. by gavage, mice were anesthetized with isoflourane (50 mg/kg) (Sigma-Aldrich), euthanized by bilateral thoracotomy, and blood was collected. Brain, kidney, and liver were harvested, homogenized in 400 μL ddH2O with Minilys tissue homogenizer (Bertin Technologies, Montigny-le-Bretonneux, France), and centrifuged for 30 min. Lithium levels in plasma and supematants from brain, kidney, and liver homogenates were determined by ELISA (Biovision, Milpitas, Calif.) following the manufacturer's instructions. Plasma, brain, kidney and liver homogenates from control mice were used to generate standard curve.

[2] = test system: GSK3β (Ser9) phosphorylation; assay: Inhibitory GSK3β (Ser9) phosphorylation by Western blot in CHO cells; format: cell-based, Chinese Hamster; settings: for maximal increase of pGSK3β: 18 h, vs no treatment; for concentration at which increase of pGSK3β starts: 18 h treatment, WB densitometry
Description: (§1) Human neuroblastoma SH-SY5Y cells (ATCC, Manassas, Va.) were cultured in DMEM/Nutrient Mixture F-12 (DMEM/F-12), 10% fetal bovine serum (FBS) and 15 mM HEPES. Chinese Hamster Ovary cells (CHO, Millipore Sigma), human embryonic kidney 293 cells expressing wild-type tau (HEK293/tau cells, ATCC) and mouse BV2 microglial cells (Creative Bioarray, Shirley, N.Y.) were cultured in DMEM with 10% FBS. SH-SY5Y cells and CHO cells were cultured in 24-well plates at a density of 2.5×10^5 cells/well. HEK293/tau cells were cultured in 24-well plates at a density of 3.5×10^5 cells/well, after being treated with Tetracycline (1:1000) for about 24 h to create high and stable cells lines (24).
(§2) Cells were treated with LiCS or NaCS at 0, 5, 10, 20, 40, 60 or 90 μM or LiCl at 0, 0.06, 0.15, 0.3, 0.6, 1.2 and 2.5 mM for 18 hours, followed by washing with ice-cold PBS 3×, lysis with cell lysis buffer and centrifugation at 1.4×10^4 rpm for 20 minutes. The supernatants were then used for analysis of GSK3β (Ser) and tau (Thr^231) phosphorylation by Western Blot (WB) and WB bands were calculated by Image J software (Java 1.6.0_20, NIH, USA).

[3] = test system: GSK3β (Ser9) phosphorylation; assay: Inhibitory GSK3β (Ser9) phosphorylation and total GSK3β by Western blot, statements covering both CHO and SH-SY5Y cells; format: cell-based; settings: for effect on total GSK3β levels: any dose; for concentration at which increase of pGSK3β starts / maximal increase of pGSK3β: both CHO and SH-SY5Y cells (summary)
Description: as §1, §2

[4] = test system: GSK3β (Ser9) phosphorylation; assay: Inhibitory GSK3β (Ser9) phosphorylation by Western blot in SH-SY5Y cells; format: cell-based, Human; settings: for maximal increase of pGSK3β: 18 h; for concentration at which increase of pGSK3β starts: 18 h treatment, WB densitometry
Description: as §1, §2

LPS-induced TNFα = format: cell-based, mouse; settings: for concentration at which decrease of LPS-induced TNFα starts: LPS 100 ng/ml, 3 h
[5] = test system: tau (Thr231) phosphorylation; assay: Tau (Thr231) phosphorylation by Western blot in HEK293/tau cells; format: cell-based, human; settings: for effect on total tau levels: any dose
Description: as §1, §2

[6] = mice; cited from earlier work
AD pathology = settings: cited from earlier work
[7] = rats; cited from earlier work
[8] = rats; cited from earlier work; remark: listed apart in the source
autistic features = settings: 2 mmol/kg i.p./day, Sprague-Dawley rats; cited from earlier work
[9] = all liposomes tested; cited from earlier work
[10] = 0.04 mmol lithium/mouse p.o., 0.5 and 5 h after gavage
[11] = NaCS at any dose between 5 and 90 μM, sulfate
[12] = long term oral administration, Tg2576 and 3XTg AD mice

CC(C)CCC[C@@H](C)[C@H]1CC[C@H]2[C@@H]3CC=C4C[C@@H](OS(=O)(=O)[O-])CC[C@]4(C)[C@H]3CC[C@]12C.[Li+] [LiCS, lithium cholesterol sulfate]
lithium levels in the liver [1, 10]: failed to increase at any time
lithium levels in the kidney ([1]; 0.04 mmol lithium/mouse p.o., 0.5 and 5 h after gavage, listed as UCS, sulfate): LiCl but not UCS treatment markedly increases
lithium levels in the kidney ([1]; 0.04 mmol lithium/mouse p.o., 0.5 and 5 h after gavage, sulfate): failed to increase at any time
lithium blood levels compared with LiCl oral treatment ([1]; oral treatment, mice): more stable and last longer
crossing of the blood-brain barrier ([1]; oral treatment, mice, compared with LiCl): more readily crosses the blood-brain barrier
maximal increase of pGSK3β ([2]; LiCS at 60 μM): 92%
concentration at which increase of pGSK3β starts [2]: 10 μM
extent of pGSK3β increase at 60 μM [3]: maximally
concentration levels at which pGSK3β increased ([3]; CHO and SH-SY5Y cells): low micromolar levels
potency relative to LiCl in increasing inhibitory GSK3β (Ser9) phosphorylation ([3]; CHO and SH-SY5Y cells): 21-28 fold
effect on total GSK3β levels ([3]; 18 h, CHO and SH-SY5Y cells, sulfate): without altering; also recorded: neither LiCS, LiCl nor NaCS altered
potency compared with LiCl in increasing inhibitory GSK3β (Ser9) phosphorylation ([3]; both CHO and SH-SY5Y cells): more potent than LiCl
concentration at which increase of pGSK3β starts [3]: 10 μM
maximal increase of pGSK3β ([3]; LiCS at 60 μM): approximately 100%
maximal increase of pGSK3β ([4]; LiCS at 90 μM): 90%
concentration at which increase of pGSK3β starts [4]: 10 μM
effectiveness compared with LiCl in reducing microglial LPS-induced TNFα production (LPS-induced TNFα; BV2 cells): more effective than LiCl
potency relative to LiCl for reducing LPS-induced TNFα production (LPS-induced TNFα; BV2 cells): approximately 250 fold
concentration at which decrease of LPS-induced TNFα starts (LPS-induced TNFα; BV2 cells): 20 µM
concentration levels at which tau (Thr231) phosphorylation is reduced ([5]; HEK293/tau cells): at micromolar levels
concentration at which decrease of ptau (Thr231) starts ([5]; HEK293/tau cells, 18 h): 10 µM
maximal decrease of ptau (Thr231) ([5]; HEK293/tau cells, 18 h, LiCS at 40 μM): 63%
effect on total tau levels ([5]; 18 h, listed as UCS, sulfate): without altering
effect on total tau levels ([5]; 18 h, sulfate): neither LiCS, NaCS nor LiCl at any dose altered

CC(C)CCC[C@@H](C)[C@H]1CC[C@H]2[C@@H]3CC=C4C[C@@H](OS(=O)(=O)[O-])CC[C@]4(C)[C@H]3CC[C@]12C.[Na+] [NaCS, sodium cholesterol sulfate]
effect on pGSK3β ([3]; NaCS at 5-90 μM, 18 h, CHO and SH-SY5Y cells, sulfate): did not alter; also recorded: failed to alter
effect on total GSK3β levels ([3]; 18 h, CHO and SH-SY5Y cells): neither LiCS, LiCl nor NaCS altered
effect on LPS-induced TNFα level (LPS-induced TNFα; NaCS at any concentration between 20 and 80 μM): not altered
effect on LPS-induced TNFα level (LPS-induced TNFα; [11]): did not alter; also recorded: failed to alter
effect on ptau (Thr231) ([5]; NaCS at any dose between 5 and 60 μM, 18 h, sulfate): neither LiCl at any dose between 60 μM and 1.25 mM nor NaCS at any dose between 5 and 60 μM altered ptau
effect on ptau (Thr231) [5, 11]: did not alter; also recorded: failed to alter
effect on total tau levels ([5]; 18 h, sulfate): neither LiCS, NaCS nor LiCl at any dose altered

O=C(O)[C@@H]1CCCN1.O=C([O-])c1ccccc1O.[Li+] [LISPRO]
brain lithium levels compared with lithium carbonate or lithium salicylate [6]: significantly higher brain lithium levels
plasma lithium levels compared with lithium carbonate or lithium salicylate [6]: more steady plasma lithium levels
AD-related behavioral impairment (AD pathology; AD mouse models): reduced AD-related behavioral impairment
AD pathology (β-amyloid plaques, tau hyperphosphorylation, neuroinflammation, neuronal and synaptic protein loss, GSK3β activity) (AD pathology; [12]): reduced AD pathology
renal inflammation (AD pathology; [12]): without eliciting renal inflammation
brain lithium levels compared with lithium carbonate or lithium salicylate [7]: significantly higher brain lithium levels
plasma lithium levels compared with lithium carbonate or lithium salicylate [7]: more steady plasma lithium levels

O=C([O-])c1ccccc1O.[Li+] [lithium salicylate]
plasma lithium levels and elimination compared with lithium lactate [8]: longer elevated plasma lithium levels with a slower elimination process

[Cl-].[Li+] [LiCl, lithium chloride]
lithium levels in the brain [1, 10]: increased at 5 h
lithium levels in the kidney [1, 10]: increased at 0.5 and 5 h; also recorded: markedly increases
lithium levels in the liver [1, 10]: failed to increase at any time
maximal increase of pGSK3β ([2]; LiCl at 1.25 mM): 91%
concentration at which increase of pGSK3β starts [2]: 160 μM
extent of pGSK3β increase at 60 μM [3]: minimally
concentration levels at which pGSK3β increased ([3]; CHO and SH-SY5Y cells): high micromolar and low millimoloar levels
effect on total GSK3β levels ([3]; 18 h, CHO and SH-SY5Y cells): without altering; also recorded: neither LiCS, LiCl nor NaCS altered
concentration at which increase of pGSK3β starts [3]: 60 μM
maximal increase of pGSK3β ([3]; LiCl at 1.25 mM): approximately 100%
maximal increase of pGSK3β ([4]; LiCl at 2.5 mM): 119%
concentration at which increase of pGSK3β starts [4]: 60 μM
concentration at which decrease of LPS-induced TNFα starts (LPS-induced TNFα; BV2 cells): 5000 µM
effect on ptau (Thr231) ([5]; LiCl at any dose between 60 μM and 1.25 mM, 18 h): not altered; also recorded: neither LiCl at any dose between 60 μM and 1.25 mM nor NaCS at any dose between 5 and 60 μM altered ptau; also recorded: ineffective even at millimolar levels; also recorded: failed to alter
effect on total tau levels ([5]; 18 h): neither LiCS, NaCS nor LiCl at any dose altered
autistic features (social interaction deficit, repetitive self-grooming, anxiety, depression) (autistic features): reversed autistic features

CC(C)CCC[C@@H](C)[C@H]1CC[C@H]2[C@@H]3CC=C4C[C@@H](OS(=O)(=O)O)CC[C@]4(C)[C@H]3CC[C@]12C [cholesterol sulfate]
rate of intermembrane exchange relative to cholesterol [9]: approximately 10 fold
